These results are taken from patent publication US20060105393A1, “Ligand-receptor tracking assays” (priority 2004, published 2006).

In one experiment the target is T1, SSTR-5 (Homo sapiens, UniProt P35346).
T1 construct: expressed in transfected cells
Description: Multiplexed internalization assay, SSTR-5 readout (Atto590-SST14) in mixed NK3R and SSTR5 cells. It counts as cell-based. The conditions noted are these: for SSTR-5 internalization with excess competitor: 1 μM competitor (FIG. 5).

Experiment [1] addresses recombinant human Somatostatin receptor 5 (Homo sapiens, UniProt P35346). Particulars: 1 μM competitor, 100 nM Atto590-SST14, 30 minutes at 37° C. (FIG. 1).
Experiment [2] concerns the target T2, NK3R (Homo sapiens, UniProt P29371).
T2 sequence (P29371 1-465): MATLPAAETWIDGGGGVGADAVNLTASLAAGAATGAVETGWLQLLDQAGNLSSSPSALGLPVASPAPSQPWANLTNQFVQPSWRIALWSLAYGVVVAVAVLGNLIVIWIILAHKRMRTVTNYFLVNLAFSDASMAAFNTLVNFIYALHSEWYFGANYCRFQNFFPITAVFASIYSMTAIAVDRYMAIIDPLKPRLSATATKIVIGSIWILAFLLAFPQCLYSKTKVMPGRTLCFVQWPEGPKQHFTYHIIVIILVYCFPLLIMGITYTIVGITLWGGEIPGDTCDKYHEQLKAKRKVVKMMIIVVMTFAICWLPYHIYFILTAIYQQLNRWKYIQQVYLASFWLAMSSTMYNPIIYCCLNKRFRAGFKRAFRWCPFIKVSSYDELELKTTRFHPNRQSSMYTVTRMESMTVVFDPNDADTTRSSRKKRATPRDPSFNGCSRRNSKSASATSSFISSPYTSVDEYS
Particulars: mixed cells.

For another experiment, the target named is T3, GHSR-1a receptor (Homo sapiens, UniProt Q92847).
T3 construct: expressed in transfected cells
As to the kind of experiment: Internalization of GHSR-1a with Ghrelin(1-19)-Texas Red (high content ligand tracking). It counts as cell-based. The conditions noted are these: 1 μM competitor, 10 nM Ghrelin(1-19)-Texas Red, 30 minutes at 37° C. (FIG. 7).

Experiment [3] has as its target T2, NK3R. The conditions noted are these: 1 μM competitor, 1 nM Atto655-NKB, 30 minutes at 37° C. (FIG. 3).
A further experiment has as its target hV1bR (Homo sapiens, UniProt P47901). The conditions noted are these: 100 nM competitor, 5 nM BO-TMR-vasopressin, 30 minutes at 37° C. (FIG. 9).

T1 sequence (P35346 whole entry): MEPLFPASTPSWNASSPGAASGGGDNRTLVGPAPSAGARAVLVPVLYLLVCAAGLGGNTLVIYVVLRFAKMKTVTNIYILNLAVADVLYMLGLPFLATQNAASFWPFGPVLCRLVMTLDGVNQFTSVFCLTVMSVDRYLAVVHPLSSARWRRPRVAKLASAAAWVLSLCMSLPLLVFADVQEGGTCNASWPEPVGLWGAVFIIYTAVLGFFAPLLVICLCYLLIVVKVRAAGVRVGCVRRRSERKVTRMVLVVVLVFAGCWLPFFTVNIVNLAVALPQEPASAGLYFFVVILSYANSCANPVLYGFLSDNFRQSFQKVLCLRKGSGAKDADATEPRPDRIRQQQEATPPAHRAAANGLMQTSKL
T3 sequence (Q92847 whole entry): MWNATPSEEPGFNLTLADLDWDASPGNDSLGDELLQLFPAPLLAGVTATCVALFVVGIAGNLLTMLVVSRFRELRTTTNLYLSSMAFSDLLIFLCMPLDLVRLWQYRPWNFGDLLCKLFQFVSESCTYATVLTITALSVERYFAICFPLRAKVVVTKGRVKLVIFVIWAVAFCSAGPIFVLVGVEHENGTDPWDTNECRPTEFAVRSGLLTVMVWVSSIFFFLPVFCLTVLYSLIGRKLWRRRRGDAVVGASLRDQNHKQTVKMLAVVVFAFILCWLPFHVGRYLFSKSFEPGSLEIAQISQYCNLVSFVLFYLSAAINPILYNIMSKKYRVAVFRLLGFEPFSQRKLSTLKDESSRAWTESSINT
Sequence of recombinant human Somatostatin receptor 5 (P35346 whole entry): as the sequence (P35346 whole entry) above
Sequence of hV1bR (P47901 whole entry): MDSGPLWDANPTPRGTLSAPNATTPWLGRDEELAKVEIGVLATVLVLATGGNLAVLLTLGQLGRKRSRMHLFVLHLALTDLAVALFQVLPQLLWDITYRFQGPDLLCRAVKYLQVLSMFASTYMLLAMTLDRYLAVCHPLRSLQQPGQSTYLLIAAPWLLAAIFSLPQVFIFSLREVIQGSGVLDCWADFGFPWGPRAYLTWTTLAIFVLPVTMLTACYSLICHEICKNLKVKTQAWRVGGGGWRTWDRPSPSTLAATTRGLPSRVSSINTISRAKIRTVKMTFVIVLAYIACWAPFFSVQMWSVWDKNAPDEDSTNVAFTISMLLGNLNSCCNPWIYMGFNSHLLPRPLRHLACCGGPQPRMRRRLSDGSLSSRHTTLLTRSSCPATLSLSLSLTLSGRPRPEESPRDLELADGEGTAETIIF

Consider Somatostatin-14 [SST14], for which the “SSTR-5 internalization with excess competitor” value on SSTR-5 was “inhibited in a selective manner”. For the same molecule, in experiment [1], the “formation of fluorescent ERCs on co-incubation with excess competitor” value (from here on “formation of fluorescent ERCs”) is listed as “block the formation of fluorescent ERCs”. The “intensity of Atto655-NKB in ERCs with increasing amount of competitor” value on NK3R [2] (dose response (FIG. 6)) was “unchanged”.
For the molecule `CC(C)(N)C(=O)N[C@H](COCc1ccccc1)C(=O)N1CCC2(CC1)CN(S(C)(=O)=O)c1ccccc12` [MK0677], the “formation of fluorescent ERCs” value on GHSR-1a receptor is reported as “blocked the formation of fluorescent ERCs”.
Consider `CC[C@H](NC(=O)c1c(C)c(-c2ccccc2)nc2ccccc12)c1ccccc1` [SB222200], for which the “SSTR-5 internalization with excess competitor” value at SSTR-5 is listed as “no effect”. The “amount of internalized Atto590-SST14 with increasing amount of competitor” value at SSTR-5 (dose response (FIG. 6)) is given as “unaffected”. Besides, the “formation of fluorescent ERCs” value on NK3R [3] is given as “blocked the formation of fluorescent ERCs”. The “NK3R mediated internalization of fluorescent ligand with excess competitor” value on NK3R [2] (1 μM competitor (FIG. 5)) is recorded as “blocked”.
Regarding Arg-8-Vasopressin, at hV1bR, the “formation of fluorescent ERCs” value is listed as “blocked the formation of fluorescent ERCs in most cells”.
